Source: ChEMBL document CHEMBL1201862, “PubChem BioAssay data set” (2004)
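How tested: cells in 96-well plates exposed to compound for 48 hours at five concentrations. GI50: concentration for 50% inhibition of growth.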 Activity calls are given as the source filed them. No stated cut-off is given here; in the data, active = GI50 up to about 1.1 µM and inactive = higher.

Legend:
Assay in all cases: NCI-60 cell line screen, 48 h
NCI-H23 = tested on: NCI-H23
HCT-15 = tested on: HCT-15
NCI-H226 = tested on: NCI-H226
Malme-3M = tested on: Malme-3M
UO-31 = tested on: UO-31
NCI/ADR-RES = tested on: NCI/ADR-RES
OVCAR-8 = tested on: OVCAR-8
A498 = tested on: A498
OVCAR-3 = tested on: OVCAR-3
LOX IMVI = tested on: LOX IMVI
IGROV-1 = tested on: IGROV-1
HOP-62 = tested on: HOP-62
NCI-H522 = tested on: NCI-H522
EKVX = tested on: EKVX
A549 = tested on: A549
HCC 2998 = tested on: HCC 2998
SF-539 = tested on: SF-539
CCRF-CEM = tested on: CCRF-CEM
SK-OV-3 = tested on: SK-OV-3
KM12 = tested on: KM12

| Structure (SMILES) | GI50 (NCI-H23) | GI50 (HCT-15) [µM] | GI50 (NCI-H226) | GI50 (Malme-3M) | GI50 (UO-31) | GI50 (NCI/ADR-RES) | GI50 (OVCAR-8) | GI50 (A498) | GI50 (OVCAR-3) | GI50 (LOX IMVI) | GI50 (IGROV-1) | GI50 (HOP-62) | GI50 (NCI-H522) | GI50 (EKVX) | GI50 (A549) | GI50 (HCC 2998) | GI50 (SF-539) | GI50 (CCRF-CEM) | GI50 (SK-OV-3) | GI50 (KM12) |
| --- | --- | --- | --- | --- | --- | --- | --- | --- | --- | --- | --- | --- | --- | --- | --- | --- | --- | --- | --- | --- |
| Cc1ccc2c(c1)CC1(Cc3c(C)cccc3C1=O)C2=O (stereo not given) | > 100 µM (inactive) | > 100 | > 100 µM (inactive) | > 100 µM (inactive) | > 100 µM (inactive) | > 100 µM (inactive) | > 100 µM (inactive) | > 100 µM (inactive) | > 100 µM (inactive) | > 100 µM (inactive) | > 100 µM (inactive) | 28.5 µM (inactive) | > 100 µM (inactive) | > 100 µM (inactive) | > 100 µM (inactive) | > 100 µM (inactive) | > 100 µM (inactive) | > 100 µM (inactive) | 76.2 µM (inactive) | > 100 µM (inactive) |
| COC(=O)c1c(O)ccc2c1C1(Cc3ccccc3C1=O)C(O)O2 (stereo not given) | 33.2 µM (inactive) | 13.3 | 9.79 µM (inactive) | 21.7 µM (inactive) | 10.1 µM (inactive) | 27.8 µM (inactive) | 14.5 µM (inactive) | > 100 µM (inactive) | 18.6 µM (inactive) | 19.5 µM (inactive) | 1.94 µM (inactive) | 13.8 µM (inactive) | 3.86 µM (inactive) | 23.1 µM (inactive) | 20.6 µM (inactive) | 31.2 µM (inactive) | 20.1 µM (inactive) | 2.46 µM (inactive) | 20.2 µM (inactive) | 25.4 µM (inactive) |
| NCCSc1nc2ccccc2c(=O)n1-c1ccccc1 | 50.2 µM (inactive) | 43.8 | > 100 µM (inactive) | 30.2 µM (inactive) | 24.4 µM (inactive) | 68.9 µM (inactive) | 56.6 µM (inactive) | 26.5 µM (inactive) | > 100 µM (inactive) | 71.9 µM (inactive) | 44.7 µM (inactive) | 61.7 µM (inactive) | 30.8 µM (inactive) | > 100 µM (inactive) | 43.7 µM (inactive) | 44.3 µM (inactive) | 32.7 µM (inactive) | 45.7 µM (inactive) | > 100 µM (inactive) | 41.7 µM (inactive) |
| COc1nc(N=P(c2ccccc2)(c2ccccc2)c2ccccc2)cc(=O)[nH]1 | > 100 µM (inactive) | > 100 | > 100 µM (inactive) | > 100 µM (inactive) | > 100 µM (inactive) | > 100 µM (inactive) | > 100 µM (inactive) | > 100 µM (inactive) | > 100 µM (inactive) | > 100 µM (inactive) | > 100 µM (inactive) | > 100 µM (inactive) | > 100 µM (inactive) | > 100 µM (inactive) | > 100 µM (inactive) | > 100 µM (inactive) | > 100 µM (inactive) | > 100 µM (inactive) | > 100 µM (inactive) | > 100 µM (inactive) |
| O=C1NC2C(=CC(O)C(O)C2O)c2cc3c(cc21)OCO3 (stereo not given) | 0.459 µM (active) | 0.52 | 0.504 µM (active) | 0.488 µM (active) | 0.564 µM (active) | 0.621 µM (active) | 0.233 µM (active) | 0.759 µM (active) | 0.372 µM (active) | 0.308 µM (active) | 0.494 µM (active) | 0.463 µM (active) | 0.244 µM (active) | 0.412 µM (active) | 0.52 µM (active) | 0.415 µM (active) | 0.458 µM (active) | 0.206 µM (active) | 0.619 µM (active) | 0.272 µM (active) |
| Cc1nc2ccccc2c(-n2cccn2)c1CCn1cccn1 | > 100 µM (inactive) | > 100 | > 100 µM (inactive) | > 100 µM (inactive) | 1.77 µM (inactive) | > 100 µM (inactive) | > 100 µM (inactive) | 46.3 µM (inactive) | 40.4 µM (inactive) | 50.6 µM (inactive) | 85.9 µM (inactive) | > 100 µM (inactive) | > 100 µM (inactive) | > 100 µM (inactive) | > 100 µM (inactive) | > 100 µM (inactive) | > 100 µM (inactive) | 66.1 µM (inactive) | > 100 µM (inactive) | > 100 µM (inactive) |
| C=C1C2CC[C@@](C)(O)C2[C@H]2OC(=O)C(=C)[C@@H]2C[C@H]1O (stereo not given in full) | 17.7 µM (inactive) | 16.7 | 18 µM (inactive) | 15.2 µM (inactive) | 13.6 µM (inactive) | 18.8 µM (inactive) | 22.3 µM (inactive) | 41 µM (inactive) | 20.4 µM (inactive) | 15 µM (inactive) | 28.4 µM (inactive) | 30.7 µM (inactive) | 14.7 µM (inactive) | 29 µM (inactive) | 29.3 µM (inactive) | 19.1 µM (inactive) | 14.2 µM (inactive) | 2.56 µM (inactive) | 29.1 µM (inactive) | 19.7 µM (inactive) |
